Data as given in ChEMBL document CHEMBL1201862, “PubChem BioAssay data set” (2004).
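Step 1: Grow cells in 96-well plates. Step 2: Expose to compound for 48 hours at 5 concentrations. Step 3: Interpolate endpoints linearly; if unreached, use highest concentration. GI50 = concentration required for 50% inhibition of growth.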 Activity calls are given as the source filed them. Cut-off read from the data, not from the text of the source: active = GI50 up to about 1.1 µM and inactive = higher.

Key:
Experiment in all cases: DTP human tumour cell line panel, 48 h
786-0 = system: 786-0
A498 = system: A498
A549 = system: A549
ACHN = system: ACHN
BT-549 = system: BT-549
CAKI-1 = system: CAKI-1
CCRF-CEM = system: CCRF-CEM
COLO 205 = system: COLO 205
DU-145 = system: DU-145
EKVX = system: EKVX
HCC 2998 = system: HCC 2998
HCT-116 = system: HCT-116
HCT-15 = system: HCT-15
HL-60 = system: HL-60
HOP-62 = system: HOP-62
HOP-92 = system: HOP-92
HT-29 = system: HT-29
Hs-578T = system: Hs-578T
IGROV-1 = system: IGROV-1
K562 = system: K562
KM12 = system: KM12
LOX IMVI = system: LOX IMVI
M14 = system: M14
MCF7 = system: MCF7
MDA-MB-231 = system: MDA-MB-231
MDA-MB-435 = system: MDA-MB-435
MDA-N = system: MDA-N
MOLT-4 = system: MOLT-4
NCI-H23 = system: NCI-H23
NCI-H460 = system: NCI-H460
NCI-H522 = system: NCI-H522
NCI/ADR-RES = system: NCI/ADR-RES
OVCAR-3 = system: OVCAR-3
OVCAR-4 = system: OVCAR-4
OVCAR-5 = system: OVCAR-5
OVCAR-8 = system: OVCAR-8
PC-3 = system: PC-3
RXF 393 = system: RXF 393
SF-268 = system: SF-268
SF-295 = system: SF-295
SF-539 = system: SF-539
SK-MEL-28 = system: SK-MEL-28
SK-MEL-2 = system: SK-MEL-2
SK-MEL-5 = system: SK-MEL-5
SN12C = system: SN12C
SNB-19 = system: SNB-19
SR = system: SR
SW-620 = system: SW-620
T47D = system: T47D
TK-10 = system: TK-10
U-251 = system: U-251
UACC-257 = system: UACC-257
UACC-62 = system: UACC-62
UO-31 = system: UO-31
Malme-3M = system: Malme-3M
NCI-H226 = system: NCI-H226
RPMI-8226 = system: RPMI-8226
SK-OV-3 = system: SK-OV-3
SNB-75 = system: SNB-75

**Q.** How did the GI50 (786-0) turn out when `CC(C)(C)OC(=O)NC12C3C4C1C1C2C3C41NC(=O)OC(C)(C)C` (configuration not stated) was run?
**A.** 43.1 µM (inactive)

**Q.** And the GI50 (A498)?
**A.** 50.5 µM (inactive)

**Q.** And the GI50 (A549)?
**A.** 71.9 µM (inactive)

**Q.** What about the GI50 (ACHN) of the same compound?
**A.** > 100 µM (inactive)

**Q.** And the GI50 (BT-549)?
**A.** 42.6 µM (inactive)

**Q.** And the GI50 (CAKI-1)?
**A.** > 100 µM (inactive)

**Q.** What about the GI50 (CCRF-CEM) of the same compound?
**A.** 21.3 µM (inactive)

**Q.** What about the GI50 (COLO 205) of the same compound?
**A.** > 100 µM (inactive)

**Q.** And the GI50 (DU-145)?
**A.** 68.4 µM (inactive)

**Q.** What about the GI50 (EKVX) of the same compound?
**A.** 26.9 µM (inactive)

**Q.** And the GI50 (HCC 2998)?
**A.** > 100 µM (inactive)

**Q.** What about the GI50 (HCT-116) of the same compound?
**A.** 47.3 µM (inactive)

**Q.** What about the GI50 (HCT-15) of the same compound?
**A.** 73.3 µM

**Q.** And the GI50 (HL-60)?
**A.** 19.7 µM (inactive)

**Q.** And the GI50 (HOP-62)?
**A.** 50.6 µM (inactive)

**Q.** And the GI50 (HOP-92)?
**A.** 68.1 µM (inactive)

**Q.** What about the GI50 (HT-29) of the same compound?
**A.** 26.9 µM (inactive)

**Q.** And the GI50 (Hs-578T)?
**A.** 23.7 µM (inactive)

**Q.** And the GI50 (IGROV-1)?
**A.** > 100 µM (inactive)

**Q.** And the GI50 (K562)?
**A.** 50.4 µM (inactive)

**Q.** And the GI50 (KM12)?
**A.** 15.8 µM (inactive)

**Q.** And the GI50 (LOX IMVI)?
**A.** 36.1 µM (inactive)

**Q.** What about the GI50 (M14) of the same compound?
**A.** 50 µM (inactive)

**Q.** And the GI50 (MCF7)?
**A.** 29.6 µM (inactive)

**Q.** What about the GI50 (MDA-MB-231) of the same compound?
**A.** 26 µM (inactive)

**Q.** And the GI50 (MDA-MB-435)?
**A.** 51.9 µM (inactive)

**Q.** What about the GI50 (MDA-N) of the same compound?
**A.** 61.2 µM (inactive)

**Q.** And the GI50 (MOLT-4)?
**A.** 15.2 µM (inactive)

**Q.** What about the GI50 (NCI-H23) of the same compound?
**A.** 57.4 µM (inactive)

**Q.** What about the GI50 (NCI-H460) of the same compound?
**A.** 35.6 µM (inactive)

**Q.** And the GI50 (NCI-H522)?
**A.** 63.2 µM (inactive)

**Q.** And the GI50 (NCI/ADR-RES)?
**A.** 22.5 µM (inactive)

**Q.** And the GI50 (OVCAR-3)?
**A.** 79.3 µM (inactive)

**Q.** What about the GI50 (OVCAR-4) of the same compound?
**A.** 35.4 µM (inactive)

**Q.** What about the GI50 (OVCAR-5) of the same compound?
**A.** > 100 µM (inactive)

**Q.** What about the GI50 (OVCAR-8) of the same compound?
**A.** 30.5 µM (inactive)

**Q.** What about the GI50 (PC-3) of the same compound?
**A.** 61.2 µM (inactive)

**Q.** What about the GI50 (RXF 393) of the same compound?
**A.** 28.5 µM (inactive)

**Q.** What about the GI50 (SF-268) of the same compound?
**A.** 35.8 µM (inactive)

**Q.** What about the GI50 (SF-295) of the same compound?
**A.** 48.1 µM (inactive)

**Q.** And the GI50 (SF-539)?
**A.** 31 µM (inactive)

**Q.** What about the GI50 (SK-MEL-28) of the same compound?
**A.** 51.4 µM (inactive)

**Q.** What about the GI50 (SK-MEL-2) of the same compound?
**A.** > 100 µM (inactive)

**Q.** And the GI50 (SK-MEL-5)?
**A.** 26.5 µM (inactive)

**Q.** What about the GI50 (SN12C) of the same compound?
**A.** 88.5 µM (inactive)

**Q.** And the GI50 (SNB-19)?
**A.** > 100 µM (inactive)

**Q.** And the GI50 (SR)?
**A.** 47.5 µM (inactive)

**Q.** What about the GI50 (SW-620) of the same compound?
**A.** 62.8 µM (inactive)

**Q.** And the GI50 (T47D)?
**A.** 27.3 µM (inactive)

**Q.** What about the GI50 (TK-10) of the same compound?
**A.** > 100 µM (inactive)

**Q.** And the GI50 (U-251)?
**A.** 37.8 µM (inactive)

**Q.** What about the GI50 (UACC-257) of the same compound?
**A.** 39.4 µM (inactive)

**Q.** What about the GI50 (UACC-62) of the same compound?
**A.** 54.3 µM (inactive)

**Q.** What about the GI50 (UO-31) of the same compound?
**A.** 39.4 µM (inactive)

**Q.** Which GI50 (786-0) does the source give for `Nc1cc2c3c(cccc3c1)C(=O)N(c1ccc(OCCN3CCCC3)cc1)C2=O` here?
**A.** 15.2 µM (inactive)

**Q.** And the GI50 (A498)?
**A.** 36.5 µM (inactive)

**Q.** And the GI50 (A549)?
**A.** 16.2 µM (inactive)

**Q.** What about the GI50 (ACHN) of the same compound?
**A.** 13.5 µM (inactive)

**Q.** And the GI50 (BT-549)?
**A.** 15.8 µM (inactive)

**Q.** And the GI50 (CAKI-1)?
**A.** 45.3 µM (inactive)

**Q.** What about the GI50 (CCRF-CEM) of the same compound?
**A.** 23.3 µM (inactive)

**Q.** What about the GI50 (COLO 205) of the same compound?
**A.** 14.1 µM (inactive)

**Q.** What about the GI50 (DU-145) of the same compound?
**A.** 27.4 µM (inactive)

**Q.** And the GI50 (EKVX)?
**A.** 18.4 µM (inactive)

**Q.** And the GI50 (HCC 2998)?
**A.** 17.5 µM (inactive)

**Q.** What about the GI50 (HCT-116) of the same compound?
**A.** 14.7 µM (inactive)

**Q.** And the GI50 (HCT-15)?
**A.** 13.8 µM

**Q.** And the GI50 (HOP-62)?
**A.** 15.9 µM (inactive)

**Q.** What about the GI50 (HOP-92) of the same compound?
**A.** 17.8 µM (inactive)

**Q.** What about the GI50 (HT-29) of the same compound?
**A.** 13.5 µM (inactive)

**Q.** And the GI50 (Hs-578T)?
**A.** 18.7 µM (inactive)

**Q.** What about the GI50 (IGROV-1) of the same compound?
**A.** 16.3 µM (inactive)

**Q.** What about the GI50 (K562) of the same compound?
**A.** 14.5 µM (inactive)

**Q.** And the GI50 (KM12)?
**A.** 16.1 µM (inactive)

**Q.** What about the GI50 (LOX IMVI) of the same compound?
**A.** 17 µM (inactive)

**Q.** And the GI50 (M14)?
**A.** 20.7 µM (inactive)

**Q.** And the GI50 (MCF7)?
**A.** 17.3 µM (inactive)

**Q.** And the GI50 (MDA-MB-231)?
**A.** 24.8 µM (inactive)

**Q.** What about the GI50 (MDA-MB-435) of the same compound?
**A.** 18.7 µM (inactive)

**Q.** What about the GI50 (MDA-N) of the same compound?
**A.** 16.6 µM (inactive)

**Q.** And the GI50 (MOLT-4)?
**A.** 18.5 µM (inactive)

**Q.** What about the GI50 (Malme-3M) of the same compound?
**A.** 17.7 µM (inactive)

**Q.** And the GI50 (NCI-H226)?
**A.** 14.5 µM (inactive)

**Q.** What about the GI50 (NCI-H23) of the same compound?
**A.** 14.4 µM (inactive)

**Q.** And the GI50 (NCI-H460)?
**A.** 11.5 µM (inactive)

**Q.** What about the GI50 (NCI-H522) of the same compound?
**A.** 16 µM (inactive)

**Q.** What about the GI50 (NCI/ADR-RES) of the same compound?
**A.** 23.9 µM (inactive)

**Q.** And the GI50 (OVCAR-3)?
**A.** 16 µM (inactive)

**Q.** What about the GI50 (OVCAR-4) of the same compound?
**A.** 17.1 µM (inactive)

**Q.** And the GI50 (OVCAR-5)?
**A.** 21.1 µM (inactive)

**Q.** What about the GI50 (OVCAR-8) of the same compound?
**A.** 15.9 µM (inactive)

**Q.** What about the GI50 (PC-3) of the same compound?
**A.** 21.4 µM (inactive)

**Q.** And the GI50 (RPMI-8226)?
**A.** 22.4 µM (inactive)

**Q.** And the GI50 (RXF 393)?
**A.** 14.2 µM (inactive)

**Q.** And the GI50 (SF-268)?
**A.** 21.3 µM (inactive)

**Q.** What about the GI50 (SF-295) of the same compound?
**A.** 13.5 µM (inactive)

**Q.** And the GI50 (SF-539)?
**A.** 13.3 µM (inactive)

**Q.** What about the GI50 (SK-MEL-28) of the same compound?
**A.** 20.3 µM (inactive)

**Q.** And the GI50 (SK-MEL-2)?
**A.** 19.4 µM (inactive)

**Q.** What about the GI50 (SK-MEL-5) of the same compound?
**A.** 18.7 µM (inactive)

**Q.** What about the GI50 (SK-OV-3) of the same compound?
**A.** 1.61 µM (inactive)

**Q.** What about the GI50 (SN12C) of the same compound?
**A.** 21.8 µM (inactive)

**Q.** What about the GI50 (SNB-19) of the same compound?
**A.** 17.2 µM (inactive)

**Q.** And the GI50 (SNB-75)?
**A.** 3.94 µM (inactive)

**Q.** And the GI50 (SR)?
**A.** 17.9 µM (inactive)

**Q.** What about the GI50 (SW-620) of the same compound?
**A.** 29.4 µM (inactive)

**Q.** And the GI50 (T47D)?
**A.** 21.2 µM (inactive)

**Q.** What about the GI50 (TK-10) of the same compound?
**A.** 17.5 µM (inactive)

**Q.** And the GI50 (U-251)?
**A.** 25.6 µM (inactive)

**Q.** And the GI50 (UACC-257)?
**A.** 16.2 µM (inactive)

**Q.** What about the GI50 (UACC-62) of the same compound?
**A.** 16.6 µM (inactive)

**Q.** What about the GI50 (UO-31) of the same compound?
**A.** 15.1 µM (inactive)
